One compound from BindingDB's records for doi:10.1021/jm00398a021 (Bristol-Myers, 1988) can be followed below.

This assay deals with D(2) dopamine receptor (Rattus norvegicus, UniProt P61169). Put plainly: ChEBML_58532. From the text:
Ability to inhibit [3H]spiperone binding to Dopamine receptor D2 in rat corpus striatum

D(2) dopamine receptor, sequence (P61169 whole entry): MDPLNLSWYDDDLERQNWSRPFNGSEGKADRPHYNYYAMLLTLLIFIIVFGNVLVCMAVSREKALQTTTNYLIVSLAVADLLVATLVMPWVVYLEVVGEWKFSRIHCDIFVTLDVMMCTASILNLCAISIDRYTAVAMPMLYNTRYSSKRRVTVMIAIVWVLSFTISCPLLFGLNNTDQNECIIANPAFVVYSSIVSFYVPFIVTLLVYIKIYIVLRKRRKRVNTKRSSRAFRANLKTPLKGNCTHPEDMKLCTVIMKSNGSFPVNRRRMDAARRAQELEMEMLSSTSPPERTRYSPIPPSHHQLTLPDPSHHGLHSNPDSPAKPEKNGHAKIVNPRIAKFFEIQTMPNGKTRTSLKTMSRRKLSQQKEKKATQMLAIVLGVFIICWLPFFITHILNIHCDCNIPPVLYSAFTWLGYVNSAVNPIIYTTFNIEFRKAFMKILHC

In the case of `O=c1scc(O)n1CCCCN1CCN(c2ccccn2)CC1`, the IC50 was over 1000 nM.

The term IC50 denotes the concentration that gives 50% inhibition. Read a high IC50 as weaker potency in that assay.
